# Laboratory results reported in US9828360B2 (Array BioPharma Inc., priority 2012, dated 2017).
# Legend:
# Experiment in all cases: KinaseProfiler off-target kinase profiling
# Type in all cases: biochemical
# Settings in all cases: 10 μM, ATP near Km
# CK1gamma2 = target: T1, CK1gamma2 (Homo sapiens, UniProt P78368)
# T1 construct: purchased Millipore, Inc. (KinaseProfiler service)
# Experimental: (§1) A representative compound of the invention (Example 48) was tested for off-target kinase activity at a concentration of 10 μM by Millipore, Inc. in their KinaseProfiler™ service against all the kinases available in their full kinase panel. The compound was run in duplicate at a concentration of ATP near the Km for each individual kinase according to Millipore's specifications. The results are shown in Table B. Data are reported as percent of control (POC) and are the average of the two replicates.
# PKAC-alpha = target: T2, PKAC-alpha (Homo sapiens, UniProt P17612)
# T2 construct: purchased Millipore, Inc. (KinaseProfiler service)
# Experimental: as §1
# PRKG1alpha = target: T3, PRKG1alpha (Homo sapiens, UniProt Q13976)
# T3 construct: purchased Millipore, Inc. (KinaseProfiler service)
# Experimental: as §1
# PKCepsilon = target: T4, PKCepsilon (Homo sapiens, UniProt Q02156)
# T4 construct: purchased Millipore, Inc. (KinaseProfiler service)
# Experimental: as §1
# ERK2 = target: T5, ERK2 (Homo sapiens, UniProt P28482)
# T5 construct: purchased Millipore, Inc. (KinaseProfiler service)
# Experimental: as §1
# Rsk1 = target: T6, Rsk1 (Homo sapiens, UniProt Q15418)
# T6 construct: purchased Millipore, Inc. (KinaseProfiler service)
# Experimental: as §1
# PDK1 = target: T7, PDK1 (Homo sapiens, UniProt O15530)
# T7 construct: purchased Millipore, Inc. (KinaseProfiler service)
# Experimental: as §1
# PRK2 = target: T8, PRK2 (Homo sapiens, UniProt Q16513)
# T8 construct: purchased Millipore, Inc. (KinaseProfiler service)
# Experimental: as §1
# PTK5 = target: T9, PTK5 (Homo sapiens, UniProt P42685)
# T9 construct: purchased Millipore, Inc. (KinaseProfiler service)
# Experimental: as §1
# NEK6 = target: T10, NEK6 (Homo sapiens, UniProt Q9HC98)
# T10 construct: purchased Millipore, Inc. (KinaseProfiler service)
# Experimental: as §1
# CK2 = target: T11, CK2 (Homo sapiens, UniProt P68400)
# T11 construct: purchased Millipore, Inc. (KinaseProfiler service)
# Experimental: as §1
# MAPKAP-K3 = target: T12, MAPKAP-K3 (Homo sapiens, UniProt Q16644)
# T12 construct: purchased Millipore, Inc. (KinaseProfiler service)
# Experimental: as §1
# EphA2 = target: T13, EphA2 (Homo sapiens, UniProt P29317)
# T13 construct: purchased Millipore, Inc. (KinaseProfiler service)
# Experimental: as §1
# PAK2 = target: T14, PAK2 (Homo sapiens, UniProt Q13177)
# T14 construct: purchased Millipore, Inc. (KinaseProfiler service)
# Experimental: as §1
# ULK2 = target: T15, ULK2 (Homo sapiens, UniProt Q8IYT8)
# T15 construct: purchased Millipore, Inc. (KinaseProfiler service)
# Experimental: as §1
# MRCKbeta = target: T16, MRCKbeta (Homo sapiens, UniProt Q9Y5S2)
# T16 construct: purchased Millipore, Inc. (KinaseProfiler service)
# Experimental: as §1
# PrKX = target: T17, PrKX (Homo sapiens, UniProt P51817)
# T17 construct: purchased Millipore, Inc. (KinaseProfiler service)
# Experimental: as §1
# LOK = target: T18, LOK (Homo sapiens, UniProt O94804)
# T18 construct: purchased Millipore, Inc. (KinaseProfiler service)
# Experimental: as §1
# IRAK4 = target: T19, IRAK4 (Homo sapiens, UniProt Q9NWZ3)
# T19 construct: purchased Millipore, Inc. (KinaseProfiler service)
# Experimental: as §1
# mTOR/FKBP12 = target: T20, mTOR/FKBP12 (Homo sapiens, UniProt P42345)
# T20 construct: purchased Millipore, Inc. (KinaseProfiler service)
# Experimental: as §1
# FGFR1 = target: T21, FGFR1 (Homo sapiens, UniProt P11362)
# T21 construct: purchased Millipore, Inc. (KinaseProfiler service)
# Experimental: as §1
# PKCgamma = target: T22, PKCgamma (Homo sapiens, UniProt P05129)
# T22 construct: purchased Millipore, Inc. (KinaseProfiler service)
# Experimental: as §1
# Ros = target: T23, Ros (Homo sapiens, UniProt P08922)
# T23 construct: purchased Millipore, Inc. (KinaseProfiler service)
# Experimental: as §1
# CDK5/p25 = target: T24, CDK5/p25 (Homo sapiens, UniProt Q00535)
# T24 construct: purchased Millipore, Inc. (KinaseProfiler service)
# Experimental: as §1
# TSSK1 = target: T25, TSSK1 (Homo sapiens, UniProt Q9BXA7)
# T25 construct: purchased Millipore, Inc. (KinaseProfiler service)
# Experimental: as §1
# FGFR3 = target: T26, FGFR3 (Homo sapiens, UniProt P22607)
# T26 construct: purchased Millipore, Inc. (KinaseProfiler service)
# Experimental: as §1
# JNK2alpha2 = target: T27, JNK2alpha2 (Homo sapiens, UniProt P45984)
# T27 construct: purchased Millipore, Inc. (KinaseProfiler service)
# Experimental: as §1
# SRC = target: T28, SRC (Homo sapiens, UniProt P12931)
# T28 construct: purchased Millipore, Inc. (KinaseProfiler service)
# Experimental: as §1
# p38alpha = target: T29, p38alpha (Homo sapiens, UniProt Q16539)
# T29 construct: purchased Millipore, Inc. (KinaseProfiler service)
# Experimental: as §1
# PRKG1beta = target: T30, PRKG1beta (Homo sapiens, UniProt Q13976)
# T30 construct: purchased Millipore, Inc. (KinaseProfiler service)
# Experimental: as §1
# GRK7 = target: T31, GRK7 (Homo sapiens, UniProt Q8WTQ7)
# T31 construct: purchased Millipore, Inc. (KinaseProfiler service)
# Experimental: as §1
# TNK2 = target: T32, TNK2 (Homo sapiens, UniProt Q07912)
# T32 construct: purchased Millipore, Inc. (KinaseProfiler service)
# Experimental: as §1
# CAMK2g = target: T33, CAMK2g (Homo sapiens, UniProt Q13555)
# T33 construct: purchased Millipore, Inc. (KinaseProfiler service)
# Experimental: as §1
# CHK2 = target: T34, CHK2 (Homo sapiens, UniProt O96017)
# T34 construct: purchased Millipore, Inc. (KinaseProfiler service)
# Experimental: as §1
# SRPK1 = target: T35, SRPK1 (Homo sapiens, UniProt Q96SB4)
# T35 construct: purchased Millipore, Inc. (KinaseProfiler service)
# Experimental: as §1
# Fer = target: T36, Fer (Homo sapiens, UniProt P16591)
# T36 construct: purchased Millipore, Inc. (KinaseProfiler service)
# Experimental: as §1
# Bmx = target: T37, Bmx (Homo sapiens, UniProt P51813)
# T37 construct: purchased Millipore, Inc. (KinaseProfiler service)
# Experimental: as §1
# MELK = target: T38, MELK (Homo sapiens, UniProt Q14680)
# T38 construct: purchased Millipore, Inc. (KinaseProfiler service)
# Experimental: as §1
# PDGFRalpha = target: T39, PDGFRalpha (Homo sapiens, UniProt P16234)
# T39 construct: purchased Millipore, Inc. (KinaseProfiler service)
# Experimental: as §1
# CK1gamma3 = target: T40, CK1gamma3 (Homo sapiens, UniProt Q9Y6M4)
# T40 construct: purchased Millipore, Inc. (KinaseProfiler service)
# Experimental: as §1
# DAPK1 = target: T41, DAPK1 (Homo sapiens, UniProt P53355)
# T41 construct: purchased Millipore, Inc. (KinaseProfiler service)
# Experimental: as §1
# T33 sequence (Q13555 whole entry): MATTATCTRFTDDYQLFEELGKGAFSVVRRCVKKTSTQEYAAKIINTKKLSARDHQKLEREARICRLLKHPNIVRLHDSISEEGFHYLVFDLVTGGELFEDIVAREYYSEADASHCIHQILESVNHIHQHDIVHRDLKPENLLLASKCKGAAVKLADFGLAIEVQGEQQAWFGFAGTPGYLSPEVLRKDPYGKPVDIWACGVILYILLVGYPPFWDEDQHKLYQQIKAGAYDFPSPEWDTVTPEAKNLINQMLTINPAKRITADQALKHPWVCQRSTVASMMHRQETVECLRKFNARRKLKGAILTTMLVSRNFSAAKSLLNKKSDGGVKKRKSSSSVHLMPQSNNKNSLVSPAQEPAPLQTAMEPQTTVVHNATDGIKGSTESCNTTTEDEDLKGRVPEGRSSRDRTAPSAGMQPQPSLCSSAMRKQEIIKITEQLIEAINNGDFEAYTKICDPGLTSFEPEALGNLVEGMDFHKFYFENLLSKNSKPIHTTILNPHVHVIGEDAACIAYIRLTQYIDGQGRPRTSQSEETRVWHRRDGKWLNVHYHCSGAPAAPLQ
# T15 sequence (Q8IYT8 whole entry): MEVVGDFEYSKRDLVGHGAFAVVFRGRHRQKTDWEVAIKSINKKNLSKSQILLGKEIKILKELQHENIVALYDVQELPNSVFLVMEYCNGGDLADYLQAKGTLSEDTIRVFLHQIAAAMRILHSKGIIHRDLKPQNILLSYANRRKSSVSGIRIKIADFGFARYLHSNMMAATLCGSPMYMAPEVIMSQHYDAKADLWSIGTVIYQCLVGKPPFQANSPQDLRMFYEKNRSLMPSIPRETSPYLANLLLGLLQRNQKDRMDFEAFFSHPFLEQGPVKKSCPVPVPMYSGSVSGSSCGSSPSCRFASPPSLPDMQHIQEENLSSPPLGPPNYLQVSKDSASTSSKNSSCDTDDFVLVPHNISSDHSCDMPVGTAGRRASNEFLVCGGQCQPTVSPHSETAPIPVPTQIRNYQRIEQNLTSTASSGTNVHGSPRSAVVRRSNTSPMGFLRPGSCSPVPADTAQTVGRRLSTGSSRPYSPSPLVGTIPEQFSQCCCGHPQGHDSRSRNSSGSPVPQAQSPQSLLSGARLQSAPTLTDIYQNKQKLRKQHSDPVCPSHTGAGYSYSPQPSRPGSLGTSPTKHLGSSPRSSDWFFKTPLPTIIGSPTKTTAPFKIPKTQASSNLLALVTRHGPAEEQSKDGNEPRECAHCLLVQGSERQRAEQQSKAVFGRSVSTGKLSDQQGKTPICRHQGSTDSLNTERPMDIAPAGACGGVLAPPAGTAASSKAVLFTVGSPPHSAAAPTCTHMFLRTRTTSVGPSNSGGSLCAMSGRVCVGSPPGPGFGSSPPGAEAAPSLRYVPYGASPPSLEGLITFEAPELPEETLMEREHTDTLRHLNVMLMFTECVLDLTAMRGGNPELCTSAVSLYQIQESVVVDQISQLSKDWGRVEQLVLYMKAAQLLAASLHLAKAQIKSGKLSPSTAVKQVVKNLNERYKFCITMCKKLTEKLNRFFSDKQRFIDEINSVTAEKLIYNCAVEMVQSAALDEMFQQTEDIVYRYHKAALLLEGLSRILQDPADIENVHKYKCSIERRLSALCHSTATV
# T20 sequence (P42345 1362-2549 limits assumed): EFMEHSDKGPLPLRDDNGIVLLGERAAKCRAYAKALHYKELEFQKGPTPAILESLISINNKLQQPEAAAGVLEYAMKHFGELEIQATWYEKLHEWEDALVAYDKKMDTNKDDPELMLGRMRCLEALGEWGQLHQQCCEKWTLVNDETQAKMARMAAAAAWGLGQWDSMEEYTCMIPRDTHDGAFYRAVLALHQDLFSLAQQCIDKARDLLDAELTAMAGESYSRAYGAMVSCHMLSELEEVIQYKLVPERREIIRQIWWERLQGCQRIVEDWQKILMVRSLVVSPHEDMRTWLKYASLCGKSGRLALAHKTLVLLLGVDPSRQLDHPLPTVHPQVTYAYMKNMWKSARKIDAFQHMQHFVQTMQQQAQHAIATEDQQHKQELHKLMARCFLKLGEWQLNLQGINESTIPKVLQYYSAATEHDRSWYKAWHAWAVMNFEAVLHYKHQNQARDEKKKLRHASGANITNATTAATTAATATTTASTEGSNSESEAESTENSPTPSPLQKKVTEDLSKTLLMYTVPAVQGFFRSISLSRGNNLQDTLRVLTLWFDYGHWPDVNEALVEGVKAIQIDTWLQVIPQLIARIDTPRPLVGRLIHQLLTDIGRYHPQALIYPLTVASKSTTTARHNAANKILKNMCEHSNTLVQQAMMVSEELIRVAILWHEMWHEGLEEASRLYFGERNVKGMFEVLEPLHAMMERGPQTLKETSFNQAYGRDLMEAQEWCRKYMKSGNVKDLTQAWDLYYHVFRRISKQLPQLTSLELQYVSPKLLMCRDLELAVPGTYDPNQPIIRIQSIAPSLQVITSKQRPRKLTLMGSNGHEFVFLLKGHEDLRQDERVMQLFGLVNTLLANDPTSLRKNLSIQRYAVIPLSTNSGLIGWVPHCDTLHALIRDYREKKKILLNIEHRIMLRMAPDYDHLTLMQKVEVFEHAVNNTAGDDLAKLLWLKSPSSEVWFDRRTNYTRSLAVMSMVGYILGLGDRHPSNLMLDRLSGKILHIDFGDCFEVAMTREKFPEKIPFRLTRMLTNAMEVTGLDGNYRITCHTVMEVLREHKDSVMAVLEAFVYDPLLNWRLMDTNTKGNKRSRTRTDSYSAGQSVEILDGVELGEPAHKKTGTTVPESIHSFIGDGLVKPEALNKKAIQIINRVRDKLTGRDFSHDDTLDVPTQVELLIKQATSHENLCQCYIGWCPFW
# T12 sequence (Q16644 whole entry): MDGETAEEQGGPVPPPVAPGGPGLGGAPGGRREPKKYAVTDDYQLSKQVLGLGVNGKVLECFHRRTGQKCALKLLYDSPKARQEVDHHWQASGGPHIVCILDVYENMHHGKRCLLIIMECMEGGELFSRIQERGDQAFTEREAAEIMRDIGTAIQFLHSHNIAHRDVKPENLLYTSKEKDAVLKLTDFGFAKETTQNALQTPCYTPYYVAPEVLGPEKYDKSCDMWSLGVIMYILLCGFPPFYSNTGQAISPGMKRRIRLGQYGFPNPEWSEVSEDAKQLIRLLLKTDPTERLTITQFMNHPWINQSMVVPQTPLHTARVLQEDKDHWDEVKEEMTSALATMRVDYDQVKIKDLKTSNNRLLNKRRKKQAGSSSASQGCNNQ
# T18 sequence (O94804 whole entry): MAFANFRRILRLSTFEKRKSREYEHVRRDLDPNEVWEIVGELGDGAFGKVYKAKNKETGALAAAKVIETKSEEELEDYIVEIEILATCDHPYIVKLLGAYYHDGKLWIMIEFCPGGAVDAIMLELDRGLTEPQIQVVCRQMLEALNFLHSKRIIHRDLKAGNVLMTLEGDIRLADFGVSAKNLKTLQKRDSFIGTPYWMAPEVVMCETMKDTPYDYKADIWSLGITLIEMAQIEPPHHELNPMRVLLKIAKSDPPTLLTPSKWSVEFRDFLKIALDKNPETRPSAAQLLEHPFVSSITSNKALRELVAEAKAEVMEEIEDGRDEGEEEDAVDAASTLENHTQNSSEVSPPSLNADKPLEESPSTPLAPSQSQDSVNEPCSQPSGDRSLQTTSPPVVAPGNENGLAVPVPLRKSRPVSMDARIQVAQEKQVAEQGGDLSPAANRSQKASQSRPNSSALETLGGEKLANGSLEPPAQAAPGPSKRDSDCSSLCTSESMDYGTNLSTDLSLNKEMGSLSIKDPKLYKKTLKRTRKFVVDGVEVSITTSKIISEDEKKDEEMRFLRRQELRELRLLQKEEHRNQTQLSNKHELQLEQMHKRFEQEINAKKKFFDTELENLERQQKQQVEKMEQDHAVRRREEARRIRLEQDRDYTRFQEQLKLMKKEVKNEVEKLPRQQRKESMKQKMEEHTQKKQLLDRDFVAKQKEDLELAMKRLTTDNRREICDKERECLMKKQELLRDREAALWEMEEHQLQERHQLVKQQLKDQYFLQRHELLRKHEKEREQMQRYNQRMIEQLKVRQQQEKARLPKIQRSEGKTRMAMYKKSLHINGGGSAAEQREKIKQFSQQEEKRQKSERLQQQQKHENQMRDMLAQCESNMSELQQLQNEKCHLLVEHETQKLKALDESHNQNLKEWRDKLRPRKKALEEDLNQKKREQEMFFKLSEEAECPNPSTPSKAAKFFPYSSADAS
# T34 sequence (O96017 whole entry): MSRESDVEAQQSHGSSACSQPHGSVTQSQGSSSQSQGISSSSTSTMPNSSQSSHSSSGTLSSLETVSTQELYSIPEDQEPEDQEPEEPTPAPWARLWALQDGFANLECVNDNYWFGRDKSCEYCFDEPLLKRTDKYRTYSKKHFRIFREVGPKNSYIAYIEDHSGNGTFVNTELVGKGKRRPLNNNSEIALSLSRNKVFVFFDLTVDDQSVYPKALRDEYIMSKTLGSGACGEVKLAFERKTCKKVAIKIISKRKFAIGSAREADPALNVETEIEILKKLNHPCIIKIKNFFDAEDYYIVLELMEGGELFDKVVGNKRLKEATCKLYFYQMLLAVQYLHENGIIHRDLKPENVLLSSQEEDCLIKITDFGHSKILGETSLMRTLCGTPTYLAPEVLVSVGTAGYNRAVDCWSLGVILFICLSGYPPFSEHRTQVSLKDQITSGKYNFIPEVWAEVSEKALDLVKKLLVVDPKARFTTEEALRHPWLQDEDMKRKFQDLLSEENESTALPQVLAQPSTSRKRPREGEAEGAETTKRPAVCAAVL
# T17 sequence (P51817 whole entry): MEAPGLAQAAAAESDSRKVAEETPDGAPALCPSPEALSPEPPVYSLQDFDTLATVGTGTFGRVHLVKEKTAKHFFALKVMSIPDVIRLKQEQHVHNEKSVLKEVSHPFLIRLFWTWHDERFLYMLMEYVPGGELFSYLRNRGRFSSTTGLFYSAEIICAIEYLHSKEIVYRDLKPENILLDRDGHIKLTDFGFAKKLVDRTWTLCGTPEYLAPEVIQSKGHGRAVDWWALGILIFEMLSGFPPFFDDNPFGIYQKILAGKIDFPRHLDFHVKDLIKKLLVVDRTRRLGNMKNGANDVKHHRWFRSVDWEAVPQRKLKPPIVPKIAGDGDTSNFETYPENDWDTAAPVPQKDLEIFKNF
compound,measurement,setting,value
"COCCN1C[C@@H](NC(=O)Nc2sc(C(C)C)nc2-c2ccccc2)[C@H](c2ccccc2)C1 [Example 48, 1-(2-isopropyl-4-phenylthiazol-5-yl)-3-((3S,4R)-1-(2-methoxyethyl)-4-phenylpyrrolidin-3-yl)urea]",Avg POC,CK1gamma2,94.5% of control
same,Avg POC,PKAC-alpha,98.5% of control
same,Avg POC,PRKG1alpha,106% of control
same,Avg POC,PKCepsilon,103.5% of control
same,Avg POC,ERK2,101% of control
same,Avg POC,Rsk1,121% of control
same,Avg POC,PDK1,85.5% of control
same,Avg POC,PRK2,111% of control
same,Avg POC,PTK5,107.5% of control
same,Avg POC,NEK6,121.5% of control
same,Avg POC,CK2,106% of control
same,Avg POC,MAPKAP-K3,75.5% of control
same,Avg POC,EphA2,101% of control
same,Avg POC,PAK2,101.5% of control
same,Avg POC,ULK2,98.5% of control
same,Avg POC,MRCKbeta,140.5% of control
same,Avg POC,PrKX,122% of control
same,Avg POC,LOK,107.5% of control
same,Avg POC,IRAK4,88% of control
same,Avg POC,mTOR/FKBP12,111.5% of control
same,Avg POC,FGFR1,98% of control
same,Avg POC,PKCgamma,93.5% of control
same,Avg POC,Ros,111% of control
same,Avg POC,CDK5/p25,110.5% of control
same,Avg POC,TSSK1,99.5% of control
same,Avg POC,FGFR3,103.5% of control
same,Avg POC,JNK2alpha2,93.5% of control
same,Avg POC,SRC,124% of control
same,Avg POC,p38alpha,108% of control
same,Avg POC,PRKG1beta,105% of control
same,Avg POC,GRK7,122% of control
same,Avg POC,TNK2,99.5% of control
same,Avg POC,CAMK2g,116% of control
same,Avg POC,CHK2,107.5% of control
same,Avg POC,SRPK1,115.5% of control
same,Avg POC,Fer,91.5% of control
same,Avg POC,Bmx,122% of control
same,Avg POC,MELK,89% of control
same,Avg POC,PDGFRalpha,104.5% of control
same,Avg POC,CK1gamma3,110% of control
same,Avg POC,DAPK1,114.5% of control
